Reference: ChEMBL document CHEMBL4507318, “Data for DCP probe BAY-985” (2021)

Columns and labels:
[1] = biological target: Cytoplasmic tyrosine-protein kinase BMX (Homo sapiens) (UniProt P51813)
[2] = biological target: Activin receptor type-1-like (Homo sapiens) (UniProt P37023)
[3] = biological target: Dual specificity protein kinase CLK3 (Homo sapiens) (UniProt P49761)
[4] = biological target: Tyrosine-protein kinase FRK (Homo sapiens) (UniProt P42685)
[5] = biological target: Insulin receptor-related protein (Homo sapiens) (UniProt P14616)
[6] = biological target: Tyrosine-protein kinase receptor UFO (Homo sapiens) (UniProt P30530)
[7] = biological target: Ribosomal protein S6 kinase alpha-2 (Homo sapiens) (UniProt Q15349)
[8] = biological target: Tyrosine-protein kinase BTK (Homo sapiens) (UniProt Q06187)
[9] = biological target: Cyclin-dependent kinase 4 (Homo sapiens) (UniProt P11802)
[10] = biological target: Cyclin-dependent kinase 15 (Homo sapiens) (UniProt Q96Q40)
[11] = biological target: Tyrosine-protein kinase ITK/TSK (Homo sapiens) (UniProt Q08881)
[12] = test system: Tyrosine-protein kinase ABL1 (Homo sapiens), P00519 [F317L]
[13] = biological target: Serine/threonine-protein kinase TAO2 (Homo sapiens) (UniProt Q9UL54)
[14] = biological target: Alpha-1D adrenergic receptor (Homo sapiens) (UniProt P25100); conditions: Compound concentration 10.0 uM
[15] = biological target: Serine/threonine-protein kinase N1 (Homo sapiens) (UniProt Q16512)
[16] = biological target: Ankyrin repeat and protein kinase domain-containing protein 1 (Homo sapiens) (UniProt Q8NFD2)
[17] = biological target: Serine/threonine-protein kinase DCLK2 (Homo sapiens) (UniProt Q8N568)
[18] = biological target: 1-phosphatidylinositol 3-phosphate 5-kinase (Homo sapiens) (UniProt Q9Y2I7)
[19] = biological target: Cyclin-dependent kinase 13 (Homo sapiens) (UniProt Q14004)
[20] = biological target: Protein kinase C iota type (Homo sapiens) (UniProt P41743)
[21] = biological target: Serine/threonine-protein kinase TAO3 (Homo sapiens) (UniProt Q9H2K8)
[22] = biological target: Dual serine/threonine and tyrosine protein kinase (Homo sapiens) (UniProt Q6XUX3)
[23] = biological target: Cyclin-dependent kinase 11A (Homo sapiens) (UniProt Q9UQ88)
[24] = biological target: Cyclin-dependent kinase-like 5 (Homo sapiens) (UniProt O76039)
[25] = test system: Receptor-type tyrosine-protein kinase FLT3 (Homo sapiens), P36888 [D835Y]
[26] = biological target: Sodium-dependent serotonin transporter (Homo sapiens) (UniProt P31645); conditions: Compound concentration 10.0 uM
[27] = biological target: Cyclin-dependent kinase-like 3 (Homo sapiens) (UniProt Q8IVW4)
[28] = biological target: TGF-beta receptor type-1 (Homo sapiens) (UniProt P36897)
[29] = biological target: Macrophage colony-stimulating factor 1 receptor (Homo sapiens) (UniProt P07333)
[30] = biological target: Transient receptor potential cation channel subfamily M member 6 (Homo sapiens) (UniProt Q9BX84)
[31] = biological target: Serine/threonine-protein kinase SIK1 (Homo sapiens) (UniProt P57059)
[32] = biological target: Dual specificity tyrosine-phosphorylation-regulated kinase 2 (Homo sapiens) (UniProt Q92630)
[33] = biological target: Mitogen-activated protein kinase kinase kinase 3 (Homo sapiens) (UniProt Q99759)
[34] = biological target: Sigma non-opioid intracellular receptor 1 (Homo sapiens) (UniProt Q99720); conditions: Compound concentration 10.0 uM
[35] = biological target: RAC-gamma serine/threonine-protein kinase (Homo sapiens) (UniProt Q9Y243)
[36] = biological target: Cyclin-dependent kinase 11B (Homo sapiens) (UniProt P21127)
[37] = test system: Receptor-type tyrosine-protein kinase FLT3 (Homo sapiens), P36888 [UNDEFINED MUTATION]
[38] = biological target: Serine/threonine-protein kinase D1 (Homo sapiens) (UniProt Q15139)
[39] = biological target: Mitogen-activated protein kinase kinase kinase 14 (Homo sapiens) (UniProt Q99558)
[40] = biological target: Ribosomal protein S6 kinase alpha-5 (Homo sapiens) (UniProt O75582)
[41] = biological target: Myosin light chain kinase family member 4 (Homo sapiens) (UniProt Q86YV6)
[42] = biological target: Homeodomain-interacting protein kinase 3 (Homo sapiens) (UniProt Q9H422)
[43] = biological target: Receptor-interacting serine/threonine-protein kinase 1 (Homo sapiens) (UniProt Q13546)
[44] = biological target: Serine/threonine-protein kinase PLK4 (Homo sapiens) (UniProt O00444)
[45] = biological target: Serine/threonine-protein kinase pim-2 (Homo sapiens) (UniProt Q9P1W9)
[46] = Compound concentration 1000.0 nM
[47] = Compound concentration 100.0 nM

Serine/threonine-protein kinase DCLK2 (Homo sapiens), sequence (Q8N568 whole entry): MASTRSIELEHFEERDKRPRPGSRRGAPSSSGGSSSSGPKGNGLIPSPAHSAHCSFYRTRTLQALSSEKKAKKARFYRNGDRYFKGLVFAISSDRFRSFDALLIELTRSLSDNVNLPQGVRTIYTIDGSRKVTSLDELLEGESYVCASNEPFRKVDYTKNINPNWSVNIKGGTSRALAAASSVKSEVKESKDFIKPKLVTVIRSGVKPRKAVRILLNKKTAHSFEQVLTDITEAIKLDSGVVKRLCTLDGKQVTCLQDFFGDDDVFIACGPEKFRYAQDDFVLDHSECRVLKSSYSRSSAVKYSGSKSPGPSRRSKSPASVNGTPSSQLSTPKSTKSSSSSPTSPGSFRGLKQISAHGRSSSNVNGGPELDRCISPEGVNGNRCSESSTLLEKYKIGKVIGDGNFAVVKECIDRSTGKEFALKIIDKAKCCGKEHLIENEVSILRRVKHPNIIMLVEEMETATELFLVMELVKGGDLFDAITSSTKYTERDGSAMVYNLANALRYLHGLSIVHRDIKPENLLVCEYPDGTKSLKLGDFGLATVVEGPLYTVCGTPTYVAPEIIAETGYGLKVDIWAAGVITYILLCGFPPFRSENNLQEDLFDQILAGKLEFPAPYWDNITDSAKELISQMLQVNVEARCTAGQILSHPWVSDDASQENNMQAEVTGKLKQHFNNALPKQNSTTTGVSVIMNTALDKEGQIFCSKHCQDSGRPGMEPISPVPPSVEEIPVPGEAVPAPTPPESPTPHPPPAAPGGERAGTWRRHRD
Serine/threonine-protein kinase D1 (Homo sapiens), sequence (Q15139 whole entry): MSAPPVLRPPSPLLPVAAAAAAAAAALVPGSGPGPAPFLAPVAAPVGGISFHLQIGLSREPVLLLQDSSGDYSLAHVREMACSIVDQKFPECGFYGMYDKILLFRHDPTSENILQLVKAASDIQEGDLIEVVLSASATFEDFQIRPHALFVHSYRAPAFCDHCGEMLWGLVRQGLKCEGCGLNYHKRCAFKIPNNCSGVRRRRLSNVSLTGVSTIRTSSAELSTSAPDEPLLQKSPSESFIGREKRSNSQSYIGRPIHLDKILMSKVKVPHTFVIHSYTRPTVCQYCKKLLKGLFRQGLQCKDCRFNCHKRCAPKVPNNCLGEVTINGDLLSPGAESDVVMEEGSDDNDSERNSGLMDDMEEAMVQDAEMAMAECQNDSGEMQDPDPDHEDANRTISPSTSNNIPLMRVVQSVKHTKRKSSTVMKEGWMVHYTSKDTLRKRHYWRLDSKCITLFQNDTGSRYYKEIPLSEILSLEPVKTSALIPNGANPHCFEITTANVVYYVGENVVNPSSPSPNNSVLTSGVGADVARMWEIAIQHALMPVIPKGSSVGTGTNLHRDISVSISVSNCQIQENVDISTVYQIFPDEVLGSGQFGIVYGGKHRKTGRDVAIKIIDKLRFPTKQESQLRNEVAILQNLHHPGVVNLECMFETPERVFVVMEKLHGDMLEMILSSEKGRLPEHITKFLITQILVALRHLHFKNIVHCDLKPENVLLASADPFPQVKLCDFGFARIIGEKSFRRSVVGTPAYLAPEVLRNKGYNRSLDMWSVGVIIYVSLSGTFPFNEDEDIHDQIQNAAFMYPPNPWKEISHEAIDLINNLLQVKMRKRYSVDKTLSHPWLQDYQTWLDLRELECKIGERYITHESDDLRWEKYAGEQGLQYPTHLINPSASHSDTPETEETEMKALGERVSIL
Dual specificity protein kinase CLK3 (Homo sapiens), sequence (P49761 whole entry, looked up): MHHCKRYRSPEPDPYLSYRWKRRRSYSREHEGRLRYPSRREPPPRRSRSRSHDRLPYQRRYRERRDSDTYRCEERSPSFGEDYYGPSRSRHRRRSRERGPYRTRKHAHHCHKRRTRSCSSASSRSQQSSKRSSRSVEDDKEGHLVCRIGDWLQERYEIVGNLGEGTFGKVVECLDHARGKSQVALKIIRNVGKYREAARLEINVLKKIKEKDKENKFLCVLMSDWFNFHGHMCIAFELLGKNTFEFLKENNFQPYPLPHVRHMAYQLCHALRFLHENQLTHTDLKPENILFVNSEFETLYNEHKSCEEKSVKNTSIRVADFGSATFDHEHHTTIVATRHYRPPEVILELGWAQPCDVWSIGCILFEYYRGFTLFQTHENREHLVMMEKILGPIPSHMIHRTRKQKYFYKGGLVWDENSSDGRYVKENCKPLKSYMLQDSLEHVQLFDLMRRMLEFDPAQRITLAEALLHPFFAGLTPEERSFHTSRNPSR
Sigma non-opioid intracellular receptor 1 (Homo sapiens), sequence (Q99720 whole entry): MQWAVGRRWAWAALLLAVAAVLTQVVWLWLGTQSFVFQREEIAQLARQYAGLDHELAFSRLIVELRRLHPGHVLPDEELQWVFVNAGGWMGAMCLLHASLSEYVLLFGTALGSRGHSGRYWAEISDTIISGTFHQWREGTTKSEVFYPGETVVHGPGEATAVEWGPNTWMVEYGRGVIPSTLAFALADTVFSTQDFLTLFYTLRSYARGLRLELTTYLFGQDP
Mitogen-activated protein kinase kinase kinase 3 (Homo sapiens), sequence (Q99759 whole entry): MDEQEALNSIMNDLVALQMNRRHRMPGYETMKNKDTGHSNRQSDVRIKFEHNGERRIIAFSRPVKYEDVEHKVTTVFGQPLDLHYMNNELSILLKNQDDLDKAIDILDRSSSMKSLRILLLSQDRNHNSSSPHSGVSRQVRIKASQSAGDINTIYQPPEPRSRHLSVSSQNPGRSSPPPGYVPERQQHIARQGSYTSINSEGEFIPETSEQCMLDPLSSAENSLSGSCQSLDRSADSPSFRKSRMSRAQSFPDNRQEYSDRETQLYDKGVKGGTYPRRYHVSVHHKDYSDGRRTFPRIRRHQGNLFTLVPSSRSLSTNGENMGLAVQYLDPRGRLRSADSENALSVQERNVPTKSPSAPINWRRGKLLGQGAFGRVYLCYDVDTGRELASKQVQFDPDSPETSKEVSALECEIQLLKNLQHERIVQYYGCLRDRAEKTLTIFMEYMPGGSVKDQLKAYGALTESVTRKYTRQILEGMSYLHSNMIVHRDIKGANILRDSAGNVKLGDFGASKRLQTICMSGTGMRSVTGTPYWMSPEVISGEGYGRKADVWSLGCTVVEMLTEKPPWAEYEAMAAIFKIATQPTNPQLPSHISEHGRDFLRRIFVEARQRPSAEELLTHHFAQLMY
Tyrosine-protein kinase ABL1 (Homo sapiens), P00519 [F317L], sequence (P00519 whole entry F317L): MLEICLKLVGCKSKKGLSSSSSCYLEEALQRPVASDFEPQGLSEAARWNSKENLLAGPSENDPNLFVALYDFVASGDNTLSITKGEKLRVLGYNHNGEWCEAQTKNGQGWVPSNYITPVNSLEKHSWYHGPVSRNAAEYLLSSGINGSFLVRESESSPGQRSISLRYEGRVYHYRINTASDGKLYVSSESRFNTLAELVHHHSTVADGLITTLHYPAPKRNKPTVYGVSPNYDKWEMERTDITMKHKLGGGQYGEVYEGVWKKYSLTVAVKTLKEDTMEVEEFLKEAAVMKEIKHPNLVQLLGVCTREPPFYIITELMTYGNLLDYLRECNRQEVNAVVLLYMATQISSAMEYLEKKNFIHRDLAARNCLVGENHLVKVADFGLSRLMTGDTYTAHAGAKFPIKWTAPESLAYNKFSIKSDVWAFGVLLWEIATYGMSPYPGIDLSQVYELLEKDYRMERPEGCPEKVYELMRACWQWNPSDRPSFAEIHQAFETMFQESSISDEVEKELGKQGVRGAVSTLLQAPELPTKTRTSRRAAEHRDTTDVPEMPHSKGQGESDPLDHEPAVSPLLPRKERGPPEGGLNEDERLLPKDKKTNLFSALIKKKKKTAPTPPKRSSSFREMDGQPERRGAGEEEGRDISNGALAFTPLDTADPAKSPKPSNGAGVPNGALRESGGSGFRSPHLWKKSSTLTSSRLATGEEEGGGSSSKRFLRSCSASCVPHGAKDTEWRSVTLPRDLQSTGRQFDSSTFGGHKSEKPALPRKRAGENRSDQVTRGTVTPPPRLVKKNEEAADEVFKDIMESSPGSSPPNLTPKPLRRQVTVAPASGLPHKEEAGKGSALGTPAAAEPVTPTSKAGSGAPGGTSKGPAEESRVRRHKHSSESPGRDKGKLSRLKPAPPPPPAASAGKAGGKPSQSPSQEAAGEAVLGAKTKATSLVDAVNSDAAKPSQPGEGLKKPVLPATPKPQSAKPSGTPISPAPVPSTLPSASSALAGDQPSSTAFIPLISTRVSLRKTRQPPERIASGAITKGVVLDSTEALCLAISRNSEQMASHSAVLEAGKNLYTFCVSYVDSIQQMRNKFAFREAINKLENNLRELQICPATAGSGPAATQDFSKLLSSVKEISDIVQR
Receptor-interacting serine/threonine-protein kinase 1 (Homo sapiens), sequence (Q13546 whole entry): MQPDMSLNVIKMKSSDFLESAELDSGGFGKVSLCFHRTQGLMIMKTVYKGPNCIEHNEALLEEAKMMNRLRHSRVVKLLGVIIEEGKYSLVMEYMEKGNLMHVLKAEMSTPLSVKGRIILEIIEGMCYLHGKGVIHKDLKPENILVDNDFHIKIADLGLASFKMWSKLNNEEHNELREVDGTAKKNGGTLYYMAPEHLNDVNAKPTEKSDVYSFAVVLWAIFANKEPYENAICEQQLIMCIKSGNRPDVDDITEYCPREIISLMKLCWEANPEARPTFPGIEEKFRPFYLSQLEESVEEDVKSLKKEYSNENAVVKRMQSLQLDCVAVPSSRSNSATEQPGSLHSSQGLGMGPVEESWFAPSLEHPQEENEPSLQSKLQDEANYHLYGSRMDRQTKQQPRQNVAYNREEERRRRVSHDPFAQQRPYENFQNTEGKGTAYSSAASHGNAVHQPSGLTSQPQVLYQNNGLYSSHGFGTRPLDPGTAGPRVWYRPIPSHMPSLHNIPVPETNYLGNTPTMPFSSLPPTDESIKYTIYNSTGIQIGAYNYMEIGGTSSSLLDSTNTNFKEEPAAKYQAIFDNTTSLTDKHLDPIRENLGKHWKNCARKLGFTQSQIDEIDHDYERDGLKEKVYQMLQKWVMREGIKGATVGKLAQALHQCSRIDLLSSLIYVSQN

For `CN(C)c1ncnc(-c2ccc3nc(Nc4cc(CN5CCN(C(=O)CC(F)(F)F)CC5)ccn4)[nH]c3c2)c1Cl` [BAY-440], the residual activity [1, 46] was 100%, the residual activity [2, 46] was 94% and the residual activity [3, 46] was 100%. The residual activity [4, 46] was 85%, the residual activity [5, 46] was 95% and the residual activity [6, 46] was 57%. The residual activity [7, 46] was 100%, the residual activity [8, 46] was 80% and the residual activity [9, 46] was 83%. It also gave a residual activity [10, 46] of 100%, a residual activity [11, 46] of 100% and a residual activity [12, 46] of 57%. It also gave a residual activity [13, 46] of 80%, an inhibition [14] of 20.8% and a residual activity [15, 46] of 100%. It also gave a residual activity [16, 46] of 57%, a residual activity [17, 46] of 100% and a residual activity [18, 46] of 81%. The residual activity [19, 46] was 84%, the residual activity [20, 46] was 79% and the residual activity [21, 46] was 33%. It also gave a residual activity [22, 46] of 95%, a residual activity [23, 46] of 100% and a residual activity [24, 46] of 66%. For the same compound, the residual activity [25, 46] was 38%, the inhibition [26] was 9.9% and the residual activity [27, 46] was 86%. It also gave a residual activity [28, 46] of 100%, a residual activity [29, 46] of 100% and a residual activity [30, 46] of 100%. It also gave a residual activity [31, 46] of 94%, a residual activity [32, 46] of 81% and a residual activity [33, 46] of 50%. For the same compound, the inhibition [34] was 13.9%, the residual activity [35, 46] was 96% and the residual activity [36, 46] was 100%. It also gave a residual activity [37, 46] of 35%, a residual activity [38, 46] of 100% and a residual activity [39, 46] of 62%. The residual activity [40, 46] was 85%, the residual activity [41, 46] was 100% and the residual activity [42, 46] was 100%. The residual activity [43, 46] was 93%, the residual activity [44, 46] was 76% and the residual activity [45, 46] was 100%.

With `C[C@H](c1ccnc(Nc2nc3ccc(-c4cc(N(C)C)ncn4)cc3[nH]2)c1)N1CCN(C(=O)CC(F)(F)F)CC1` [BAY-985] the residual activity [1, 47] was 100%, the residual activity [2, 47] was 100% and the residual activity [3, 47] was 100%. It also gave a residual activity [4, 47] of 92%, a residual activity [5, 47] of 100% and a residual activity [6, 47] of 100%. For the same compound, the residual activity [7, 47] was 89%, the residual activity [8, 47] was 100% and the residual activity [9, 47] was 100%. For the same compound, the residual activity [10, 47] was 100%, the residual activity [11, 47] was 100% and the residual activity [12, 47] was 100%. It also gave a residual activity [13, 47] of 100%, an inhibition [14] of 20.2% and a residual activity [15, 47] of 100%. The residual activity [16, 47] was 99%, the residual activity [17, 47] was 85% and the residual activity [18, 47] was 100%. For the same compound, the residual activity [19, 47] was 100%, the residual activity [20, 47] was 100% and the residual activity [21, 47] was 41%. It also gave a residual activity [22, 47] of 100%, a residual activity [23, 47] of 84% and a residual activity [24, 47] of 100%. For the same compound, the residual activity [25, 47] was 41%, the inhibition [26] was 21.6% and the residual activity [27, 47] was 86%. The residual activity [28, 47] was 85%, the residual activity [29, 47] was 100% and the residual activity [30, 47] was 100%. For the same compound, the residual activity [31, 47] was 96%, the residual activity [32, 47] was 87% and the residual activity [33, 47] was 100%. It also gave an inhibition [34] of 3.18%, a residual activity [35, 47] of 100% and a residual activity [36, 47] of 100%. The residual activity [37, 47] was 42%, the residual activity [38, 47] was 100% and the residual activity [39, 47] was 100%. For the same compound, the residual activity [40, 47] was 61%, the residual activity [41, 47] was 100% and the residual activity [42, 47] was 100%. The residual activity [43, 47] was 95%, the residual activity [44, 47] was 96% and the residual activity [45, 47] was 100%.
